PubChem BioAssay (NCI)
“And” between values parts separate entries of the source, which are not always exact repeats. Equal entries are not always repeated.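 All cell lines were grown in 96-well plates and treated with compound for 48 hours. GI50 marks 50% less growth. TGI is the concentration that stops growth completely.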

How the values were obtained:
Test in all cases: DTP human tumour cell line panel, 48 h
SNB-75 CNS = test system: SNB-75 CNS
IGROV1 ovarian = test system: IGROV1 ovarian
HCT-15 colon = test system: HCT-15 colon
SK-MEL-2 melanoma = test system: SK-MEL-2 melanoma
EKVX NSCLC = test system: EKVX NSCLC
OVCAR-8 ovarian = test system: OVCAR-8 ovarian
COLO 205 colon = test system: COLO 205 colon
U251 CNS = test system: U251 CNS
SK-OV-3 ovarian = test system: SK-OV-3 ovarian
LOX IMVI melanoma = test system: LOX IMVI melanoma

## NCc1nnn(Cc2ccccc2)c1N
SNB-75 CNS
  TGI: > 100 µM
IGROV1 ovarian
  TGI: > 100 µM
HCT-15 colon
  TGI: > 100 µM
SK-MEL-2 melanoma
  TGI: > 100 µM
EKVX NSCLC
  TGI: > 100 µM
OVCAR-8 ovarian
  TGI: > 100 µM
COLO 205 colon
  TGI: > 100 µM
U251 CNS
  TGI: > 100 µM
SK-OV-3 ovarian
  TGI: > 100 µM
LOX IMVI melanoma
  TGI: > 100 µM

## Nc1nc2nc[nH]c2c(=O)[nH]1
SNB-75 CNS
  TGI: > 100 µM
IGROV1 ovarian
  TGI: > 100 µM
HCT-15 colon
  TGI: > 100 µM
SK-MEL-2 melanoma
  TGI: > 100 µM
EKVX NSCLC
  TGI: > 100 µM
OVCAR-8 ovarian
  TGI: > 100 µM
COLO 205 colon
  TGI: > 100 µM
U251 CNS
  TGI: > 100 µM
SK-OV-3 ovarian
  TGI: > 100 µM
LOX IMVI melanoma
  TGI: > 100 µM

## C1=Cc2nc1c(-c1ccncc1)c1ccc([n-]1)c(-c1ccncc1)c1nc(c(-c3ccncc3)c3ccc([n-]3)c2-c2ccncc2)C=C1.[Zn+2]
SNB-75 CNS
  TGI: > 100 µM
IGROV1 ovarian
  TGI: > 100 µM
HCT-15 colon
  TGI: > 100 µM
SK-MEL-2 melanoma
  TGI: > 100 µM
EKVX NSCLC
  TGI: > 100 µM
OVCAR-8 ovarian
  TGI: > 100 µM
COLO 205 colon
  TGI: > 100 µM
U251 CNS
  TGI: > 100 µM
SK-OV-3 ovarian
  TGI: > 100 µM
LOX IMVI melanoma
  TGI: > 100 µM

## NS(=O)(=O)c1ccc(CCN=C=S)cc1
SNB-75 CNS
  GI50: 1.16 µM
  TGI: 3.16 µM
IGROV1 ovarian
  GI50: 2.1 µM
  TGI: 4.96 µM
HCT-15 colon
  GI50: 1.3 µM
  TGI: 3.37 µM
SK-MEL-2 melanoma
  GI50: 2.3 µM
  TGI: 5.84 µM
EKVX NSCLC
  GI50: 2.35 µM
  TGI: 6.23 µM
OVCAR-8 ovarian
  GI50: 3.15 µM
  TGI: 10.3 µM
COLO 205 colon
  GI50: 2.15 µM
  TGI: 4.52 µM
U251 CNS
  GI50: 1.94 µM
  TGI: 4.13 µM
SK-OV-3 ovarian
  GI50: 18.2 µM
  TGI: 32.4 µM
LOX IMVI melanoma
  GI50: 1.92 µM
  TGI: 3.72 µM

## COC(=O)C1=C(CO)C2C=CC1C2 (centres undefined)
SNB-75 CNS
  TGI: > 100 µM
IGROV1 ovarian
  TGI: > 100 µM
HCT-15 colon
  TGI: > 100 µM
SK-MEL-2 melanoma
  TGI: > 100 µM
EKVX NSCLC
  TGI: > 100 µM
OVCAR-8 ovarian
  TGI: > 100 µM
COLO 205 colon
  TGI: > 100 µM
U251 CNS
  TGI: > 100 µM
SK-OV-3 ovarian
  TGI: > 100 µM
LOX IMVI melanoma
  TGI: > 100 µM

## CCOC(=O)c1c(C(F)(F)F)n([O-])c2ccc(OC)cc2[n+]1=O
SNB-75 CNS
  GI50: 3.55 µM
  TGI: 39.8 µM
IGROV1 ovarian
  GI50: 4.69 µM
  TGI: 26.5 µM
HCT-15 colon
  GI50: 3.88 µM
  TGI: > 100 µM
SK-MEL-2 melanoma
  GI50: 19.2 µM
  TGI: 54.4 µM
EKVX NSCLC
  GI50: 3.67 µM
  TGI: 60.5 µM
OVCAR-8 ovarian
  GI50: 5.12 µM
  TGI: > 100 µM
COLO 205 colon
  GI50: 4.13 µM
  TGI: 16.2 µM
U251 CNS
  GI50: 4.31 µM
  TGI: > 100 µM
SK-OV-3 ovarian
  GI50: 3.71 µM
  TGI: 20.3 µM
LOX IMVI melanoma
  GI50: 5.22 µM
  TGI: 25.4 µM

## Nc1c(-c2ccc(Cl)cc2Cl)[n+]([O-])c2ccccc2[n+]1[O-]
SNB-75 CNS
  TGI: > 100 µM
IGROV1 ovarian
  TGI: > 100 µM
HCT-15 colon
  TGI: > 100 µM
SK-MEL-2 melanoma
  TGI: > 100 µM
EKVX NSCLC
  TGI: > 100 µM
OVCAR-8 ovarian
  TGI: > 100 µM
COLO 205 colon
  TGI: > 100 µM
U251 CNS
  TGI: > 100 µM
SK-OV-3 ovarian
  TGI: > 100 µM
LOX IMVI melanoma
  TGI: > 100 µM

## O=C(COc1ccccc1)NS(=O)(=O)c1ccccc1
SNB-75 CNS
  TGI: > 100 µM
IGROV1 ovarian
  TGI: > 100 µM
HCT-15 colon
  TGI: > 100 µM
SK-MEL-2 melanoma
  TGI: > 100 µM
EKVX NSCLC
  TGI: > 100 µM
OVCAR-8 ovarian
  TGI: > 100 µM
COLO 205 colon
  TGI: > 100 µM
U251 CNS
  TGI: > 100 µM
SK-OV-3 ovarian
  TGI: > 100 µM
LOX IMVI melanoma
  TGI: > 100 µM

## CSc1nc2sc3cc(Cl)ccc3n2c(=N)c1C#N
SNB-75 CNS
  GI50: 2.27 µM
  TGI: > 69.6 µM
IGROV1 ovarian
  GI50: > 49.2 µM
  TGI: > 88.4 µM
HCT-15 colon
  GI50: > 100 µM
  TGI: > 100 µM
SK-MEL-2 melanoma
  GI50: 15.5 µM
  TGI: 48.5 µM
EKVX NSCLC
  GI50: 10.7 µM
  TGI: > 100 µM
OVCAR-8 ovarian
  GI50: 17.4 µM
  TGI: > 100 µM
COLO 205 colon
  GI50: 3.33 µM
  TGI: > 100 µM
U251 CNS
  GI50: > 55 µM
  TGI: > 100 µM
SK-OV-3 ovarian
  GI50: 12.5 µM
  TGI: > 100 µM
LOX IMVI melanoma
  GI50: > 74.4 µM
  TGI: > 100 µM

## Cc1cc(Cl)ccc1N=C1NC(=O)C(CC(=O)Nc2ccc(Cl)cc2Cl)S1 (centres undefined)
SNB-75 CNS
  TGI: > 100 µM
IGROV1 ovarian
  TGI: > 100 µM
HCT-15 colon
  TGI: > 100 µM
SK-MEL-2 melanoma
  TGI: > 100 µM
EKVX NSCLC
  TGI: > 100 µM
OVCAR-8 ovarian
  TGI: > 100 µM
COLO 205 colon
  TGI: > 100 µM
U251 CNS
  TGI: > 100 µM
SK-OV-3 ovarian
  TGI: > 100 µM
LOX IMVI melanoma
  TGI: > 100 µM

## COc1ccc(/C=C/c2n[nH]c3ccc(N4CCOC4=O)cc23)cc1
SNB-75 CNS
  GI50: 2.5 µM
  TGI: 18 µM
IGROV1 ovarian
  GI50: 2.53 µM
  TGI: > 100 µM
HCT-15 colon
  GI50: 1.12 µM
  TGI: 12.5 µM
SK-MEL-2 melanoma
  GI50: 2.53 µM
  TGI: 6.21 µM
EKVX NSCLC
  GI50: 3.39 µM
  TGI: 36.1 µM
OVCAR-8 ovarian
  GI50: 2.31 µM
  TGI: > 100 µM
COLO 205 colon
  GI50: 0.501 µM
  TGI: 3.05 µM
U251 CNS
  GI50: 2.51 µM
  TGI: > 100 µM
SK-OV-3 ovarian
  GI50: 2.82 µM
  TGI: 9.57 µM
LOX IMVI melanoma
  GI50: 2.52 µM
  TGI: 27.7 µM

## NCCC(O)(P(=O)(O)O)P(=O)(O)O
SNB-75 CNS
  GI50: > 100 µM
  TGI: > 100 µM
IGROV1 ovarian
  GI50: > 100 µM
  TGI: > 100 µM
HCT-15 colon
  GI50: > 100 µM
  TGI: > 100 µM
SK-MEL-2 melanoma
  GI50: 4.43 µM
  TGI: 43.8 µM
EKVX NSCLC
  GI50: > 100 µM
  TGI: > 100 µM
OVCAR-8 ovarian
  GI50: 3.47 µM
  TGI: 35.6 µM
COLO 205 colon
  GI50: > 100 µM
  TGI: > 100 µM
U251 CNS
  GI50: > 100 µM
  TGI: > 100 µM
SK-OV-3 ovarian
  GI50: > 100 µM
  TGI: > 100 µM
LOX IMVI melanoma
  GI50: > 100 µM
  TGI: > 100 µM

## NC1=N/C(=C2/CCNC(=O)c3[nH]c(Br)cc32)C(=O)N1
SNB-75 CNS
  TGI: > 91.5 µM
IGROV1 ovarian
  GI50: 30.4 µM and 97 µM
  TGI: > 100 µM
HCT-15 colon
  TGI: > 100 µM
SK-MEL-2 melanoma
  GI50: 0.975 µM and 2.9 µM
  TGI: 8.72 µM and 26.3 µM
EKVX NSCLC
  TGI: > 100 µM
OVCAR-8 ovarian
  TGI: > 100 µM
COLO 205 colon
  GI50: 12.6 µM and 44.3 µM
  TGI: > 100 µM
U251 CNS
  TGI: > 100 µM
SK-OV-3 ovarian
  GI50: 7.66 µM and 16.1 µM
  TGI: > 100 µM
LOX IMVI melanoma
  TGI: > 62.1 µM

## O=C1CCC2(CC1)SCCCS2
SNB-75 CNS
  TGI: > 100 µM
IGROV1 ovarian
  TGI: > 100 µM
HCT-15 colon
  TGI: > 100 µM
SK-MEL-2 melanoma
  TGI: > 100 µM
EKVX NSCLC
  TGI: > 100 µM
OVCAR-8 ovarian
  TGI: > 100 µM
COLO 205 colon
  TGI: > 100 µM
U251 CNS
  TGI: > 100 µM
SK-OV-3 ovarian
  TGI: > 100 µM
LOX IMVI melanoma
  TGI: > 100 µM

## O=[N+]([O-])c1nccn1COCCF
SNB-75 CNS
  TGI: > 100 µM
IGROV1 ovarian
  TGI: > 100 µM
HCT-15 colon
  TGI: > 100 µM
SK-MEL-2 melanoma
  TGI: > 100 µM
EKVX NSCLC
  TGI: > 100 µM
OVCAR-8 ovarian
  TGI: > 100 µM
COLO 205 colon
  TGI: > 100 µM
U251 CNS
  TGI: > 100 µM
SK-OV-3 ovarian
  TGI: > 100 µM
LOX IMVI melanoma
  TGI: > 100 µM

## Cc1cc(Cl)cc2c1NC(=O)C2(O)C(C)C(=O)c1ccc(Cl)cc1 (centres undefined)
SNB-75 CNS
  TGI: > 100 µM
IGROV1 ovarian
  TGI: > 100 µM
HCT-15 colon
  TGI: > 100 µM
SK-MEL-2 melanoma
  TGI: > 100 µM
EKVX NSCLC
  TGI: > 100 µM
OVCAR-8 ovarian
  TGI: > 100 µM
COLO 205 colon
  TGI: > 100 µM
U251 CNS
  TGI: > 100 µM
SK-OV-3 ovarian
  TGI: > 100 µM
LOX IMVI melanoma
  TGI: > 100 µM

## CCn1cnc2c(Nc3cccc(Cl)c3)nc(N[C@@H]3CCCC[C@@H]3N)nc21
SNB-75 CNS
  GI50: 0.745 µM
  TGI: 2.23 µM
IGROV1 ovarian
  GI50: 2 µM
  TGI: 8.58 µM
HCT-15 colon
  GI50: 2.08 µM
  TGI: 8.75 µM
SK-MEL-2 melanoma
  GI50: 1.65 µM
  TGI: 3.43 µM
EKVX NSCLC
  GI50: 1.6 µM
  TGI: 3.92 µM
OVCAR-8 ovarian
  GI50: 2.35 µM
  TGI: 9.53 µM
COLO 205 colon
  GI50: 1.19 µM
  TGI: 2.6 µM
U251 CNS
  GI50: 1.37 µM
  TGI: 3.3 µM
SK-OV-3 ovarian
  GI50: 3.85 µM
  TGI: 10.8 µM
LOX IMVI melanoma
  GI50: 1.24 µM
  TGI: 2.57 µM
